From ChEMBL document CHEMBL1201862, “PubChem BioAssay data set” (2004)
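Cultured in 96-well plates, cells were exposed to test compound for 48 hours across five concentrations. At the GI50, growth is halved.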 The source made the active and inactive calls. Rule as the data show it: active = GI50 up to about 1.1 µM and inactive = higher.

What was measured:
Assay in all cases: NCI tumour cell line growth inhibition, 48 h
SF-268 = test system: SF-268
MDA-MB-231 = test system: MDA-MB-231
SW-620 = test system: SW-620
KM12 = test system: KM12
SNB-75 = test system: SNB-75
T47D = test system: T47D
NCI/ADR-RES = test system: NCI/ADR-RES
HOP-92 = test system: HOP-92
HT-29 = test system: HT-29
UACC-62 = test system: UACC-62
LOX IMVI = test system: LOX IMVI
OVCAR-8 = test system: OVCAR-8
EKVX = test system: EKVX
SF-539 = test system: SF-539
SK-MEL-28 = test system: SK-MEL-28
NCI-H226 = test system: NCI-H226
PC-3 = test system: PC-3
HOP-62 = test system: HOP-62
HCC 2998 = test system: HCC 2998

Measured: GI50

O=C(O)CSCC(=O)c1ccccc1
inactive: SF-268 > 100 µM | MDA-MB-231 > 100 µM | SW-620 > 100 µM | KM12 > 100 µM | SNB-75 > 100 µM | T47D > 100 µM | NCI/ADR-RES > 100 µM | HOP-92 > 100 µM | HT-29 > 100 µM | UACC-62 > 100 µM | LOX IMVI > 100 µM | OVCAR-8 > 100 µM | EKVX > 100 µM | SF-539 > 100 µM | SK-MEL-28 > 100 µM | NCI-H226 > 100 µM | PC-3 > 100 µM | HOP-62 > 100 µM

COc1ccc(/C=C(\NC(=O)c2ccccc2)C(=O)NN(C)c2ccnc3cc(Cl)ccc23)cc1OC
inactive: SF-268 18.5 µM | MDA-MB-231 24.3 µM | SW-620 22.1 µM | KM12 17.6 µM | SNB-75 32.2 µM | T47D 30.4 µM | NCI/ADR-RES 20.1 µM | HOP-92 21.4 µM | HT-29 34.7 µM | LOX IMVI 18.7 µM | OVCAR-8 23.4 µM | EKVX 50.7 µM | SF-539 21.5 µM | SK-MEL-28 26 µM | NCI-H226 19.1 µM | PC-3 27.4 µM | HOP-62 41.3 µM

C[C@@H]1CC[C@@H]2[C@@H](C1)O[C@@H]([C@@H](C)OCc1ccccc1)SC2(C)C
inactive: SF-268 23 µM | MDA-MB-231 21.5 µM | SW-620 18.4 µM | KM12 18.7 µM | SNB-75 16.2 µM | T47D 14.7 µM | NCI/ADR-RES 20.1 µM | HT-29 18.8 µM | UACC-62 19.3 µM | LOX IMVI 21.2 µM | OVCAR-8 22.4 µM | EKVX 31.8 µM | SF-539 17.2 µM | HCC 2998 17.9 µM | SK-MEL-28 24.7 µM | NCI-H226 19.4 µM | PC-3 19.5 µM | HOP-62 16.4 µM

O=c1n(-c2ccccc2)c(=O)n2n1C1CCC2CC1
inactive: SF-268 > 100 µM | MDA-MB-231 > 100 µM | SW-620 > 100 µM | KM12 > 100 µM | SNB-75 > 100 µM | T47D > 100 µM | NCI/ADR-RES > 100 µM | HOP-92 > 100 µM | HT-29 > 100 µM | UACC-62 > 100 µM | LOX IMVI > 100 µM | OVCAR-8 > 100 µM | EKVX > 100 µM | SF-539 > 100 µM | SK-MEL-28 > 100 µM | NCI-H226 > 100 µM | PC-3 > 100 µM | HOP-62 > 100 µM

N#CC(NNC(=O)c1c(Cl)c(Cl)c(Cl)c(Cl)c1-c1nc2cc(C(=O)c3ccccc3)ccc2[nH]1)c1ccccc1 (stereo not drawn)
inactive: SF-268 7.83 µM | MDA-MB-231 9.2 µM | SW-620 8.87 µM | KM12 7.45 µM | SNB-75 3.95 µM | T47D 4.79 µM | NCI/ADR-RES 3.43 µM | HOP-92 15 µM | HT-29 8.53 µM | LOX IMVI 9.35 µM | OVCAR-8 23.7 µM | EKVX 17.9 µM | SF-539 3.18 µM | SK-MEL-28 17.8 µM | NCI-H226 9.2 µM | PC-3 7.14 µM | HOP-62 7.82 µM

O=C(OC[C@H]1C[C@H]2C(=O)OCCC[C@H]2O1)c1ccccc1
inactive: SF-268 > 100 µM | MDA-MB-231 > 100 µM | SW-620 > 100 µM | KM12 > 100 µM | SNB-75 > 100 µM | T47D > 100 µM | NCI/ADR-RES > 100 µM | HOP-92 > 100 µM | HT-29 > 100 µM | UACC-62 > 100 µM | OVCAR-8 > 100 µM | EKVX > 100 µM | SK-MEL-28 > 100 µM | NCI-H226 > 100 µM | PC-3 > 100 µM | HOP-62 > 100 µM

Nc1nc(-c2ccccc2/N=N/N2CCCC2)nc2ccccc12
inactive: SF-268 6.7 µM | MDA-MB-231 1.58 µM | SW-620 1.74 µM | KM12 2.13 µM | SNB-75 11.5 µM | T47D 2.4 µM | NCI/ADR-RES 2.99 µM | HOP-92 8 µM | HT-29 2.38 µM | UACC-62 1.77 µM | LOX IMVI 1.75 µM | OVCAR-8 1.45 µM | EKVX 10.8 µM | SF-539 2.39 µM | SK-MEL-28 12.2 µM | NCI-H226 2.22 µM | PC-3 3.7 µM | HOP-62 1.73 µM

Cc1ccc(S(=O)(=O)NC(=O)NCC(=O)O)cc1
inactive: SF-268 > 100 µM | MDA-MB-231 > 100 µM | SW-620 > 100 µM | KM12 > 100 µM | SNB-75 > 100 µM | T47D > 100 µM | NCI/ADR-RES > 100 µM | HOP-92 > 100 µM | HT-29 > 100 µM | UACC-62 > 100 µM | LOX IMVI > 100 µM | OVCAR-8 > 100 µM | SF-539 > 100 µM | SK-MEL-28 > 100 µM | PC-3 > 100 µM | HOP-62 > 100 µM
